#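 Compound exposure: 48 hours, 5 concentrations, 96-well plates. GI50 is the concentration that inhibits growth by half.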 Activity calls are given as the source filed them. Rule as the data show it: active = GI50 up to about 1.1 µM and inactive = higher.
# Experiments:
# Assay in all cases: DTP human tumour cell line panel, 48 h
# 786-0 = test system: 786-0
# A549 = test system: A549
# ACHN = test system: ACHN
# CAKI-1 = test system: CAKI-1
# CCRF-CEM = test system: CCRF-CEM
# COLO 205 = test system: COLO 205
# DLD-1 = test system: DLD-1
# EKVX = test system: EKVX
# HCC 2998 = test system: HCC 2998
# HCT-116 = test system: HCT-116
# HCT-15 = test system: HCT-15
# HL-60 = test system: HL-60
# HOP-18 = test system: HOP-18
# HOP-62 = test system: HOP-62
# HT-29 = test system: HT-29
# IGROV-1 = test system: IGROV-1
# K562 = test system: K562
# KM-20L2 = test system: KM-20L2
# KM12 = test system: KM12
# LOX IMVI = test system: LOX IMVI
# LXFL 529 = test system: LXFL 529
# M14 = test system: M14
# M19-MEL = test system: M19-MEL
# MOLT-4 = test system: MOLT-4
# Malme-3M = test system: Malme-3M
# NCI-H226 = test system: NCI-H226
# NCI-H23 = test system: NCI-H23
# NCI-H460 = test system: NCI-H460
# NCI-H522 = test system: NCI-H522
# OVCAR-3 = test system: OVCAR-3
# OVCAR-4 = test system: OVCAR-4
# OVCAR-5 = test system: OVCAR-5
# OVCAR-8 = test system: OVCAR-8
# RPMI-8226 = test system: RPMI-8226
# RXF 393 = test system: RXF 393
# SF-268 = test system: SF-268
# SF-295 = test system: SF-295
# SF-539 = test system: SF-539
# SK-MEL-28 = test system: SK-MEL-28
# SK-MEL-2 = test system: SK-MEL-2
# SK-MEL-5 = test system: SK-MEL-5
# SN12C = test system: SN12C
# SNB-19 = test system: SNB-19
# SNB-78 = test system: SNB-78
# SR = test system: SR
# SW-620 = test system: SW-620
# U-251 = test system: U-251
# UACC-257 = test system: UACC-257
# UACC-62 = test system: UACC-62
# UO-31 = test system: UO-31
# XF498 = test system: XF498
# A498 = test system: A498
# BT-549 = test system: BT-549
# DMS-114 = test system: DMS-114
# DU-145 = test system: DU-145
# HOP-92 = test system: HOP-92
# Hs-578T = test system: Hs-578T
# MCF7 = test system: MCF7
# MDA-MB-231 = test system: MDA-MB-231
# MDA-MB-435 = test system: MDA-MB-435
# MDA-N = test system: MDA-N
# NCI/ADR-RES = test system: NCI/ADR-RES
# PC-3 = test system: PC-3
# SK-OV-3 = test system: SK-OV-3
# SNB-75 = test system: SNB-75
# TK-10 = test system: TK-10
smiles,measurement,setting,value
CCOC(=O)/C(C(=O)c1ccccc1)=C1/NCCN1C,GI50,786-0,> 100 µM (inactive)
same,GI50,A549,> 100 µM (inactive)
same,GI50,ACHN,> 100 µM (inactive)
same,GI50,CAKI-1,> 100 µM (inactive)
same,GI50,CCRF-CEM,> 100 µM (inactive)
same,GI50,COLO 205,> 100 µM (inactive)
same,GI50,DLD-1,> 100 µM (inactive)
same,GI50,EKVX,> 100 µM (inactive)
same,GI50,HCC 2998,> 100 µM (inactive)
same,GI50,HCT-116,> 100 µM (inactive)
same,GI50,HCT-15,> 100 µM
same,GI50,HL-60,> 100 µM (inactive)
same,GI50,HOP-18,> 100 µM (inactive)
same,GI50,HOP-62,> 100 µM (inactive)
same,GI50,HT-29,> 100 µM (inactive)
same,GI50,IGROV-1,> 100 µM (inactive)
same,GI50,K562,> 100 µM (inactive)
same,GI50,KM-20L2,> 100 µM (inactive)
same,GI50,KM12,> 100 µM (inactive)
same,GI50,LOX IMVI,> 100 µM (inactive)
same,GI50,LXFL 529,> 100 µM (inactive)
same,GI50,M14,> 100 µM (inactive)
same,GI50,M19-MEL,> 100 µM (inactive)
same,GI50,MOLT-4,> 100 µM (inactive)
same,GI50,Malme-3M,> 100 µM (inactive)
same,GI50,NCI-H226,> 100 µM (inactive)
same,GI50,NCI-H23,> 100 µM (inactive)
same,GI50,NCI-H460,> 100 µM (inactive)
same,GI50,NCI-H522,> 100 µM (inactive)
same,GI50,OVCAR-3,> 100 µM (inactive)
same,GI50,OVCAR-4,> 100 µM (inactive)
same,GI50,OVCAR-5,> 100 µM (inactive)
same,GI50,OVCAR-8,> 100 µM (inactive)
same,GI50,RPMI-8226,> 100 µM (inactive)
same,GI50,RXF 393,> 100 µM (inactive)
same,GI50,SF-268,> 100 µM (inactive)
same,GI50,SF-295,> 100 µM (inactive)
same,GI50,SF-539,10 µM (inactive)
same,GI50,SK-MEL-28,> 100 µM (inactive)
same,GI50,SK-MEL-2,> 100 µM (inactive)
same,GI50,SK-MEL-5,> 100 µM (inactive)
same,GI50,SN12C,> 100 µM (inactive)
same,GI50,SNB-19,> 100 µM (inactive)
same,GI50,SNB-78,> 100 µM (inactive)
same,GI50,SR,> 100 µM (inactive)
same,GI50,SW-620,> 100 µM (inactive)
same,GI50,U-251,> 100 µM (inactive)
same,GI50,UACC-257,> 100 µM (inactive)
same,GI50,UACC-62,> 100 µM (inactive)
same,GI50,UO-31,> 100 µM (inactive)
same,GI50,XF498,> 100 µM (inactive)
COc1ccc(/C=C2\CCC(CN(C)C)C2=O)cc1 (configuration not stated),GI50,786-0,1.65 µM (inactive)
same,GI50,A498,15 µM (inactive)
same,GI50,A549,12.2 µM (inactive)
same,GI50,ACHN,9.77 µM (inactive)
same,GI50,BT-549,3.26 µM (inactive)
same,GI50,CAKI-1,2.4 µM (inactive)
same,GI50,CCRF-CEM,2.26 µM (inactive)
same,GI50,COLO 205,3.42 µM (inactive)
same,GI50,DLD-1,3.62 µM (inactive)
same,GI50,DMS-114,5.98 µM (inactive)
same,GI50,DU-145,2.94 µM (inactive)
same,GI50,EKVX,17.8 µM (inactive)
same,GI50,HCC 2998,8.13 µM (inactive)
same,GI50,HCT-116,2.29 µM (inactive)
same,GI50,HCT-15,2.29 µM
same,GI50,HL-60,1.02 µM (active)
same,GI50,HOP-18,6.85 µM (inactive)
same,GI50,HOP-62,12.2 µM (inactive)
same,GI50,HOP-92,6.1 µM (inactive)
same,GI50,HT-29,3.5 µM (inactive)
same,GI50,Hs-578T,3.82 µM (inactive)
same,GI50,IGROV-1,8.47 µM (inactive)
same,GI50,K562,1.6 µM (inactive)
same,GI50,KM-20L2,17.1 µM (inactive)
same,GI50,KM12,8.26 µM (inactive)
same,GI50,LOX IMVI,1.93 µM (inactive)
same,GI50,LXFL 529,2.05 µM (inactive)
same,GI50,M14,2.54 µM (inactive)
same,GI50,M19-MEL,8.71 µM (inactive)
same,GI50,MCF7,1.95 µM (inactive)
same,GI50,MDA-MB-231,1.99 µM (inactive)
same,GI50,MDA-MB-435,1.88 µM (inactive)
same,GI50,MDA-N,3.44 µM (inactive)
same,GI50,MOLT-4,1.83 µM (inactive)
same,GI50,Malme-3M,4.92 µM (inactive)
same,GI50,NCI-H226,16.3 µM (inactive)
same,GI50,NCI-H23,7.91 µM (inactive)
same,GI50,NCI-H460,16.6 µM (inactive)
same,GI50,NCI-H522,1.1 µM (active)
same,GI50,NCI/ADR-RES,2.36 µM (inactive)
same,GI50,OVCAR-3,4.12 µM (inactive)
same,GI50,OVCAR-4,8.34 µM (inactive)
same,GI50,OVCAR-5,13.6 µM (inactive)
same,GI50,OVCAR-8,3.24 µM (inactive)
same,GI50,PC-3,5.12 µM (inactive)
same,GI50,RPMI-8226,0.832 µM (active)
same,GI50,RXF 393,2.94 µM (inactive)
same,GI50,SF-268,9.71 µM (inactive)
same,GI50,SF-295,17.9 µM (inactive)
same,GI50,SF-539,7.83 µM (inactive)
same,GI50,SK-MEL-28,5.75 µM (inactive)
same,GI50,SK-MEL-2,7.87 µM (inactive)
same,GI50,SK-MEL-5,8.69 µM (inactive)
same,GI50,SK-OV-3,17.6 µM (inactive)
same,GI50,SN12C,5.83 µM (inactive)
same,GI50,SNB-19,10.3 µM (inactive)
same,GI50,SNB-75,12.4 µM (inactive)
same,GI50,SNB-78,13.6 µM (inactive)
same,GI50,SR,1.26 µM (inactive)
same,GI50,SW-620,1.96 µM (inactive)
same,GI50,TK-10,5.98 µM (inactive)
same,GI50,U-251,18.3 µM (inactive)
same,GI50,UACC-257,3.75 µM (inactive)
same,GI50,UACC-62,8.91 µM (inactive)
same,GI50,UO-31,8.59 µM (inactive)
same,GI50,XF498,4.21 µM (inactive)
